Where “and” joins values, the source holds several entries; their conditions need not be identical. Equal entries are not always repeated.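 96-well plates; 48 h exposure; 5 concentrations. Endpoints by linear interpolation between flanking doses. Not reached: highest tested concentration assigned. Here, GI50 denotes the concentration required for 50% inhibition of growth. TGI is the concentration that stops growth completely.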
Assays:
Assay in all cases: inhibition of tumour cell growth, NCI panel, 48 h
786-0 renal = tested on: 786-0 renal
CCRF-CEM leukemia = tested on: CCRF-CEM leukemia
HCC-2998 colon = tested on: HCC-2998 colon
HOP-62 NSCLC = tested on: HOP-62 NSCLC
LOX IMVI melanoma = tested on: LOX IMVI melanoma
OVCAR-8 ovarian = tested on: OVCAR-8 ovarian
RPMI-8226 leukemia = tested on: RPMI-8226 leukemia
SF-295 CNS = tested on: SF-295 CNS
SW-620 colon = tested on: SW-620 colon
TK-10 renal = tested on: TK-10 renal

SMILES	TGI (786-0 renal)	TGI (CCRF-CEM leukemia)	TGI (HCC-2998 colon)	TGI (HOP-62 NSCLC)	TGI (LOX IMVI melanoma)	TGI (OVCAR-8 ovarian)	TGI (RPMI-8226 leukemia)	TGI (SF-295 CNS)	TGI (SW-620 colon)	TGI (TK-10 renal)	GI50 (786-0 renal)	GI50 (CCRF-CEM leukemia)	GI50 (HCC-2998 colon)	GI50 (HOP-62 NSCLC)	GI50 (LOX IMVI melanoma)	GI50 (OVCAR-8 ovarian)	GI50 (RPMI-8226 leukemia)	GI50 (SF-295 CNS)	GI50 (SW-620 colon)	GI50 (TK-10 renal)
O=C(CCCCCCCCCCc1ccccc1)c1c(O)cccc1O	32.3 µM	90.8 µM	44.3 µM	42.2 µM	72.9 µM	38.1 µM	> 100 µM	47 µM	34.7 µM	> 100 µM	–	–	–	–	–	–	–	–	–	–
CC1CCC(O)C(C(O)CC2CC(=O)N(C)C(=O)C2)C1 (stereo not given)	> 100 µM	> 100 µM	> 100 µM	> 100 µM	> 100 µM	> 100 µM	> 100 µM	> 100 µM	> 100 µM	> 100 µM	–	–	–	–	–	–	–	–	–	–
O=C(N[C@@H]1CCCc2ccccc21)[C@H](CCC(=O)N1CCN(C2CCCCC2)CC1)N1C(=O)[C@@H](N2C(=O)OC[C@@H]2c2ccccc2)[C@H]1/C=C/c1ccccc1	4.07 µM	8.87 µM	5.37 µM	17.4 µM	3.41 µM	18.9 µM	5.34 µM	7.57 µM	10.8 µM	6.01 µM	1.86 µM	2.83 µM	2.27 µM	3.87 µM	1.68 µM	4.58 µM	1.54 µM	2.34 µM	3.06 µM	2.02 µM
c1ccc(SCCCC(Sc2ccccc2)Sc2ccccc2)cc1	> 100 µM	> 100 µM	> 100 µM	> 100 µM	> 100 µM	> 100 µM	> 100 µM	> 100 µM	> 100 µM	> 100 µM	–	–	–	–	–	–	–	–	–	–
CN1CC2(CCCCC2)C(O)C12C=CCCC2 (stereo not given)	> 100 µM	> 100 µM	> 100 µM	> 100 µM	> 100 µM	> 100 µM	> 100 µM	> 100 µM	> 100 µM	> 100 µM	–	–	–	–	–	–	–	–	–	–
CC(=O)[CH-]C(=O)c1ccccc1.CC(=O)[CH-]C(=O)c1ccccc1.[O]=[U+2]=[O]	> 100 µM	> 100 µM	65.4 µM	66.2 µM	> 100 µM	> 100 µM	> 100 µM	> 100 µM	> 100 µM	> 100 µM	40.2 µM	27.8 µM	18.7 µM	23.8 µM	25.4 µM	35 µM	40.7 µM	6.55 µM	35.3 µM	37.8 µM
CC(C)OP(=O)(CP(=O)(OC(C)C)OC(C)C)OC(C)C.[CH3][Sn]([Br])([Br])[Br]	> 100 µM	> 100 µM	> 100 µM	> 100 µM	> 100 µM	> 100 µM	> 100 µM	> 100 µM	> 100 µM	> 100 µM	> 100 µM	> 100 µM	> 100 µM	> 100 µM	> 100 µM	> 100 µM	> 100 µM	> 100 µM	> 100 µM	> 100 µM
COc1ccccc1C(=O)c1cnc(NC2CCN(S(C)(=O)=O)CC2)nc1N	> 25 µM	> 24.1 µM	> 25 µM	> 25 µM	> 25 µM	> 25 µM	> 25 µM	> 25 µM	> 25 µM	> 25 µM	8.15 µM	7.04 µM	13 µM	7.73 µM	6.25 µM	6.97 µM	6.57 µM	5.5 µM	4.33 µM	5.92 µM
Brc1ccc2c(c1)C1(c3cc(Br)ccc3-2)c2cc(Br)ccc2-c2ccc(Br)cc21	> 100 µM	> 100 µM	> 100 µM	> 100 µM	> 100 µM	> 100 µM	> 100 µM	> 100 µM	> 100 µM	> 100 µM	–	–	–	–	–	–	–	–	–	–
O=C(O)c1cc(Cl)cc(NC(=O)C(Cl)Cl)c1Cl	> 100 µM	> 100 µM	> 100 µM	> 100 µM	> 100 µM	> 100 µM	> 100 µM	> 100 µM	> 100 µM	> 100 µM	–	–	–	–	–	–	–	–	–	–
Cn1c(=O)n(-c2ccc(C(C)(C)C#N)cc2)c2c3cc(-c4cnc5ccccc5c4)ccc3ncc21	–	> 100 µM	> 100 µM	11.9 µM and > 2.72 µM	> 100 µM	–	0.385 µM and 3.13 µM and 1.24 µM	0.0278 µM and 0.0203 µM and 0.0181 µM	> 100 µM	–	< 0.0118 µM and 0.00542 µM and < 0.01 µM	< 0.01 µM and 0.00575 µM and < 0.0109 µM	< 0.01 µM and 0.0061 µM	< 0.01 µM and 0.00605 µM	< 0.01 µM and 0.00522 µM	0.0101 µM and 0.00582 µM and < 0.01 µM	< 0.0116 µM and 0.00603 µM and < 0.0114 µM	< 0.01 µM and 0.00401 µM	0.0163 µM and 0.00734 µM and < 0.0116 µM	0.0102 µM and 0.00652 µM and 0.0126 µM
O=C1OC(c2ccc(O)cc2)(c2ccc(O)cc2)c2cccc3cccc1c23	41.8 µM	48.4 µM	32.5 µM	38.1 µM	34.7 µM	44.1 µM	50.5 µM	31.8 µM	33.3 µM	34 µM	20.2 µM	19.8 µM	15.8 µM	17.3 µM	15.2 µM	16.7 µM	18.6 µM	15 µM	15.5 µM	18 µM
COc1cc[nH]c1/C=C1\C(=O)Nc2ccc(F)c(C#CC3(O)CCOCC3)c21	> 25 µM	1.86 µM	2.59 µM	> 10.4 µM	1.77 µM	> 25 µM	1.76 µM	16.4 µM	> 8.38 µM	2.92 µM	0.824 µM	0.713 µM	0.676 µM	0.878 µM	0.537 µM	0.867 µM	0.76 µM	0.849 µM	0.619 µM	0.507 µM
COC(=O)C12CC(C3CC31)C1CC12 (stereo not given)	> 100 µM	> 100 µM	> 100 µM	> 100 µM	> 100 µM	> 100 µM	> 100 µM	> 100 µM	> 100 µM	> 100 µM	–	–	–	–	–	–	–	–	–	–
COc1cc(C2C3=C(COC3=O)N(CCO)c3cc4c(cc32)CCC4)cc(OC)c1O (stereo not given)	32 µM	> 32.5 µM	1.29 µM	> 32.5 µM	> 32.5 µM	> 32.5 µM	> 32.5 µM	0.354 µM	> 32.5 µM	> 32.5 µM	0.77 µM	1.21 µM	0.221 µM	0.213 µM	0.187 µM	0.365 µM	0.838 µM	0.0973 µM	0.121 µM	> 32.5 µM
COc1ccc2nc3ccc(OC)cc3c(SCCCN)c2c1	15.2 µM	4.11 µM	30.7 µM	45.8 µM	5.26 µM	12.9 µM	3.92 µM	38.7 µM	3.15 µM	10.5 µM	6.85 µM	1.76 µM	13.2 µM	20.3 µM	2.22 µM	5.13 µM	1.78 µM	18.3 µM	1.44 µM	2.03 µM
O=c1[nH]c(=O)n(C2CC(O)C(CO)O2)cc1C#Cc1ccc(C(F)(F)F)cc1 (stereo not given)	> 100 µM	> 100 µM	> 100 µM	> 100 µM	> 100 µM	> 100 µM	> 100 µM	> 100 µM	> 100 µM	> 100 µM	–	–	–	–	–	–	–	–	–	–
CC1=CC2=C(C)C3(CC3)[C@@](C)(O)C(=O)C2=C1	0.517 µM	> 1 µM	0.406 µM	0.356 µM	0.594 µM	0.706 µM	> 1 µM	0.571 µM	> 1 µM	0.89 µM	–	–	–	–	–	–	–	–	–	–
CC(C)OP(=O)(OC(C)C)C(N(C)C)P(=O)(OC(C)C)OC(C)C.[Cl][Sn]([Cl])([Cl])[c]1ccccc1	12.3 µM	18.6 µM	7.46 µM	7.34 µM	6.97 µM	13.2 µM	5 µM	9.98 µM	22.3 µM	> 100 µM	2.84 µM	2.07 µM	1.79 µM	2.08 µM	2.26 µM	3.16 µM	1.84 µM	4.15 µM	3.26 µM	14.4 µM
CCOP(=O)(OCC)/C(C#N)=C\c1cccc2ccccc12	> 100 µM	97.7 µM	> 100 µM	> 100 µM	> 59.4 µM	> 100 µM	> 66.5 µM	> 100 µM	> 100 µM	> 100 µM	–	–	–	–	–	–	–	–	–	–
CC1=C(C#N)C(N)=C2C(C)=C(C#N)C(N)=C12	> 100 µM	> 100 µM	> 100 µM	> 100 µM	> 100 µM	> 100 µM	> 100 µM	> 100 µM	> 100 µM	> 100 µM	–	–	–	–	–	–	–	–	–	–
Clc1ccc2c(Cl)ncnc2c1	> 100 µM	> 100 µM	> 100 µM	> 100 µM	> 100 µM	> 100 µM	> 100 µM	> 100 µM	> 100 µM	> 100 µM	–	–	–	–	–	–	–	–	–	–
C/C(=C(/c1ccc(O)cc1)c1ccc(OCCN2CCCC2)cc1)c1ccccc1	4.09 µM	9.85 µM	6.18 µM	4.54 µM	3.29 µM	23.1 µM	6.72 µM	4.19 µM	5.17 µM	16.4 µM	1.86 µM	3.2 µM	2.34 µM	2.1 µM	1.72 µM	5.73 µM	2.4 µM	1.95 µM	2.28 µM	4.61 µM
Nc1ncnc2occ(-c3ccc(NC(=O)Nc4cc(C(F)(F)F)cc(C(F)(F)F)c4)cc3)c12	7.07 µM	19.2 µM	8.27 µM	6.99 µM	6.83 µM	7.11 µM	16.4 µM	6.53 µM	7.61 µM	5.96 µM	3.54 µM	4.5 µM	4.63 µM	3.66 µM	3.27 µM	2.89 µM	3.68 µM	2.72 µM	4.01 µM	1.84 µM
Cc1ccc(C2=Nc3c(N)ncnc3NC(c3cccc(Nc4ccnc5cc(C(F)(F)F)ccc45)c3)C2)cc1 (stereo not given)	11.2 µM	> 100 µM	10.5 µM	52.1 µM	6.13 µM	76.7 µM	6.05 µM	6.88 µM	11.3 µM	80.7 µM	3.03 µM	3.85 µM	2.59 µM	5.38 µM	2.34 µM	5.89 µM	2.17 µM	2.33 µM	2.87 µM	6.89 µM
Cc1cc(CS(=O)(=O)/C=C/c2ccccc2[N+](=O)[O-])c(CS(=O)(=O)/C=C/c2ccccc2[N+](=O)[O-])cc1C	34.9 µM	> 46.4 µM	> 100 µM	49.4 µM	> 100 µM	> 100 µM	> 86 µM	63.2 µM	> 100 µM	> 81.8 µM	–	–	–	–	–	–	–	–	–	–
COc1ccc(C2=CC(c3cc(OC)c(OC)c(OC)c3)n3ncnc3N2)cc1 (stereo not given)	> 100 µM	> 100 µM	> 100 µM	25.2 µM	> 100 µM	21.6 µM	81.3 µM	0.0742 µM	> 100 µM	31.7 µM	0.0448 µM	0.0425 µM	0.24 µM	0.0588 µM	0.0898 µM	0.0763 µM	0.0439 µM	0.0228 µM	0.0484 µM	13 µM
N#CC1c2ccccc2-c2ccccc2N1C(=O)c1ccccc1 (stereo not given)	> 88.1 µM	> 36.3 µM	22.2 µM	> 100 µM	> 94.3 µM	96.9 µM	5.32 µM	> 100 µM	> 100 µM	28.2 µM	3.53 µM	2.17 µM	2.72 µM	4.46 µM	2.81 µM	3.63 µM	0.903 µM	2.63 µM	0.585 µM	1.23 µM
Cc1ccc(NCSc2ccc(Cl)cc2)cc1	> 100 µM	> 100 µM	> 100 µM	> 100 µM	> 100 µM	> 100 µM	> 100 µM	> 100 µM	> 100 µM	> 100 µM	6.53 µM	0.995 µM	> 100 µM	30.7 µM	> 100 µM	> 100 µM	2.29 µM	24.9 µM	> 100 µM	51.8 µM
COc1ccccc1Cn1cc2c(c1)-c1oncc1CC2	29.7 µM	–	6.87 µM	> 100 µM	23.1 µM	> 50.8 µM	–	3.88 µM	> 100 µM	> 78 µM	2.44 µM	0.29 µM	0.873 µM	1.02 µM	0.946 µM	1.92 µM	0.454 µM	0.375 µM	0.351 µM	2.67 µM

— PubChem BioAssay (NCI)
